This is an account of results in patent publication US20170000405A1, “RAPID, REPRODUCIBLE, NON-INVASIVE PREDICTOR OF CADAVERIC DONOR LIVER GRAFT UTILIZATION” (THE REGENTS OF THE UNIVERSITY OF CALIFORNIA, priority 2014, published 2017).

Structures are written as SMILES.

For this series the following is noted: human, in vivo.

Method: To evaluate the method for rapid, non-invasive, quantitative assessment of liver function, performed before liver graft procurement, a LiMON liver function monitor, manufactured by Pulsion Medical Systems, Munich, Germany, was used for the assessment of brain-dead donor livers by measuring Indocyanine Green Plasma Disappearance Rates (ICG-PDRs). […] The LiMON monitor 102 measures Indocyanine Green (ICG) 104 clearance from the blood, after the ICG is administered intravenously to the donor, by non-invasive pulse-densitometry using, for example, a finger probe 106.
Injected ICG 202 is detected by a sensor 204 on the finger 206 from fractional pulsatile changes 208, 210 in optical absorption using LED lights 212. The optical peak absorption of 805 nm as shown in FIG. 2B and 905 nm as shown in FIG. 2C allows continuous measurements of ICG-PDR. The clearance of the injected dye from the blood (mg/l) can be calculated as:
The ICG-PDR is calculated as the ICG clearance (CICG) over time, as shown in the graph in FIG. 3.
Consecutive adult brain-dead donors in the local donation service area, whose livers were offered to the study center, were assessed for liver function using the methods of the current disclosure, after permission was acquired. Immediately prior to organ procurement, indocyanine green elimination tests were conducted using the non-invasive liver function monitoring system shown in FIG. 1 and FIG. 2A. Each patient received an ICG finger clip connected to a liver function monitor. A dose of 0.25 mg/kg ICG (ICG—PULSION, Pulsion Medical Systems) was given through a central vein as a bolus and immediately flushed with 10 mL of normal saline. All of the ICG-PDR measurements were acquired using the LiMON liver function monitor manufactured by Pulsion Medical Systems, Munich, Germany.

On to `CC1(C)C(/C=C/C=C/C=C/C=C2\N(CCCCS(=O)(=O)O)c3ccc4ccccc4c3C2(C)C)=[N+](CCCCS(=O)(=O)[O-])c2ccc3ccccc3c21` [ICG, Indocyanine Green], for which the “IGG-PDR, Mean (SD), Accepted” value is recorded as 24.1 (6.7) %/min; the “IGG-PDR, Mean (SD), Rejected” value is given as 17.9 (4.7) %/min; the “PDR, sample PULSION-LiMON ICG trace of a non-acceptable liver” value is given as 12.9 % clearance per minute; the “PDR, sample PULSION-LiMON ICG trace of an accepted liver” value turned out to be 21.5 % clearance per minute.
